Columns and labels:
NNMT [1] = molecular target: T1, NNMT (Homo sapiens, UniProt P40261); assay: Cellular thermal shift assay; type: binding; conditions: K562 cell lysate; various concentrations; heated at 57 °C
T1 sequence (P40261 1-264): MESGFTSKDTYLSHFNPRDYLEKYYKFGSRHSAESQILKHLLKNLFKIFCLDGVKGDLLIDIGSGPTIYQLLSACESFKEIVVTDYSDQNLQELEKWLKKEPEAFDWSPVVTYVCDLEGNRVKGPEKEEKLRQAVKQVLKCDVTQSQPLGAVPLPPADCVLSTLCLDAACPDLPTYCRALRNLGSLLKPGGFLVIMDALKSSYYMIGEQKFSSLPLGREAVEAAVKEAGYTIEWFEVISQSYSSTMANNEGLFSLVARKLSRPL

Caco-2 = assay: A-B permeability testing; conditions: Caco-2, pH 6.5/7.4
U2OS cells = assay: CellTiter-Glo luminescent cell viability; type: cell-based, human; conditions: 48 h, 100 μM dose
[2] = tested on: MNAM levels in U2OS cells; assay: MNAM measurement in U2OS cells by LC-MS/MS; type: cell-based, human; conditions: 24 h incubation
NNMT [3] = molecular target: T1, NNMT; assay: Fluorescence-based continuous NNMT inhibition assay; type: biochemical; conditions: for NNMT inhibition (in words): qualitative SAR statement

NC(=O)c1cccc(C#C[C@@H](CC[C@H](N)C(=O)O)C[C@H]2O[C@@H](n3cnc4c(N)ncnc43)[C@H](O)[C@@H]2O)c1 [NS1, (2S,5S)-2-amino-5-(((2R,3S,4R,5R)-5-(6-amino-9H-purin-9-yl)-3,4-dihydroxytetrahydrofuran-2-yl)methyl)-7-(3-carbamoylphenyl)hept-6-ynoic acid]
isothermal dose response CETSA, stabilization of NNMT (in words) (NNMT [1]): dose-dependent manner
A-B permeability (in words) (Caco-2): limited permeability
cytotoxicity to U2OS cells (in words) (U2OS cells): None of the compounds tested (NS1, 21, 23, 24, 25) were toxic
ability to decrease MNAM levels in U2OS cells (in words) [2]: the effects were modest

Nc1ncnc2c1ncn2[C@@H]1O[C@H](CCCC[C@H](N)C(=O)O)[C@@H](O)[C@H]1O [compound 11, (S)-2-amino-6-((2R,3S,4R,5R)-5-(6-amino-9H-purin-9-yl)-3,4-dihydroxytetrahydrofuran-2-yl)hexanoic acid]
NNMT inhibition (in words) (NNMT [3]): poor NNMT inhibitor

C#C[C@@H](CC[C@H](N)C(=O)O)C[C@H]1O[C@@H](n2cnc3c(N)ncnc32)[C@H](O)[C@@H]1O [compound 12, (2S,5S)-2-amino-5-(((2R,3S,4R,5R)-5-(6-amino-9H-purin-9-yl)-3,4-dihydroxytetrahydrofuran-2-yl)methyl)hept-6-ynoic acid]
NNMT inhibition (in words) (NNMT [3]): equally poor NNMT inhibitors

Nc1ncnc2c1ncn2[C@@H]1O[C@H](C[C@@H](C#Cc2ccccc2)CC[C@H](N)C(=O)O)[C@@H](O)[C@H]1O [compound 13, (2S,5S)-2-amino-5-(((2R,3S,4R,5R)-5-(6-amino-9H-purin-9-yl)-3,4-dihydroxytetrahydrofuran-2-yl)methyl)-7-phenylhept-6-ynoic acid]
NNMT inhibition (in words) (NNMT [3]): equally poor NNMT inhibitors

NC(=O)c1cccc(CC[C@@H](CC[C@H](N)C(=O)O)C[C@H]2O[C@@H](n3cnc4c(N)ncnc43)[C@H](O)[C@@H]2O)c1 [compound 15, (2S,5S)-2-amino-5-(((2R,3S,4R,5R)-5-(6-amino-9H-purin-9-yl)-3,4-dihydroxytetrahydrofuran-2-yl)methyl)-7-(3-carbamoylphenyl)heptanoic acid]
fold more potent than MS2756 in terms of Ki (NNMT [3]; relative to MS2756): approximately 200 fold
fold weaker inhibitor than NS1 in terms of Ki (NNMT [3]; relative to NS1): ~10 fold

NC(=O)c1cccc(CC[C@H](CC[C@H](N)C(=O)O)C[C@H]2O[C@@H](n3cnc4c(N)ncnc43)[C@H](O)[C@@H]2O)c1 [compound 16, (2S,5R)-2-amino-5-(((2R,3S,4R,5R)-5-(6-amino-9H-purin-9-yl)-3,4-dihydroxytetrahydrofuran-2-yl)methyl)-7-(3-carbamoylphenyl)heptanoic acid]
fold difference in Ki between NS1-alkane and its C6’ epimer (NNMT [3]; relative to NS1-alkane (15)): ~ 20 fold

NC(=O)c1cccc(C#CCC[C@H]2O[C@@H](n3cnc4c(N)ncnc43)[C@H](O)[C@@H]2O)c1 [compound 17, 3-(4-((2R,3S,4R,5R)-5-(6-amino-9H-purin-9-yl)-3,4-dihydroxytetrahydrofuran-2-yl)but-1-yn-1-yl)benzamide]
fold weaker inhibitor than NS1 in terms of Ki (NNMT [3]; relative to NS1): ~ 500 fold

NC(=O)c1cccc(C#C[C@@H]2C[C@H]2[C@H]2O[C@@H](n3cnc4c(N)ncnc43)[C@H](O)[C@@H]2O)c1 [compound 18, 3-(((1R,2R)-2-((2R,3S,4R,5R)-5-(6-amino-9H-purin-9-yl)-3,4-dihydroxytetrahydrofuran-2-yl)cyclopropyl)ethynyl)benzamide]
NNMT inhibition (in words) (NNMT [3]): proved detrimental

CO[C@@H]1O[C@H](C[C@@H](C#Cc2cccc(C(N)=O)c2)CC[C@H](N)C(=O)O)[C@@H](O)[C@H]1O [compound 19, (2S,5S)-2-amino-7-(3-carbamoylphenyl)-5-(((2R,3S,4R,5R)-3,4-dihydroxy-5-methoxytetrahydrofuran-2-yl)methyl)hept-6-ynoic acid]
NNMT inhibition (in words) (NNMT [3]): completely abrogated NNMT inhibition

NC(=O)c1cccc(C#C[C@@H](CCCC(=O)O)C[C@H]2O[C@@H](n3cnc4c(N)ncnc43)[C@H](O)[C@@H]2O)c1 [compound 20, (S)-5-(((2R,3S,4R,5R)-5-(6-amino-9H-purin-9-yl)-3,4-dihydroxytetrahydrofuran-2-yl)methyl)-7-(3-carbamoylphenyl)hept-6-ynoic acid]
NNMT inhibition (in words) (NNMT [3]): poor NNMT inhibitor

NCCC[C@H](C#Cc1cccc(C(N)=O)c1)C[C@H]1O[C@@H](n2cnc3c(N)ncnc32)[C@H](O)[C@@H]1O [compound 21, 3-((S)-6-amino-3-(((2R,3S,4R,5R)-5-(6-amino-9H-purin-9-yl)-3,4-dihydroxytetrahydrofuran-2-yl)methyl)hex-1-yn-1-yl)benzamide]
cytotoxicity to U2OS cells (in words) (U2OS cells): None of the compounds tested (NS1, 21, 23, 24, 25) were toxic
ability to decrease MNAM levels in U2OS cells (in words) [2]: the effects were modest

COC(=O)[C@@H](N)CC[C@H](C#Cc1cccc(C(N)=O)c1)C[C@H]1O[C@@H](n2cnc3c(N)ncnc32)[C@H](O)[C@@H]1O [compound 23, Methyl (2S,5S)-2-amino-5-(((2R,3S,4R,5R)-5-(6-amino-9H-purin-9-yl)-3,4-dihydroxytetrahydrofuran-2-yl)methyl)-7-(3-carbamoylphenyl)hept-6-ynoate]
cytotoxicity to U2OS cells (in words) (U2OS cells): None of the compounds tested (NS1, 21, 23, 24, 25) were toxic
ability to decrease MNAM levels in U2OS cells (in words) [2]: the effects were modest

NC(=O)c1cccc(C#C[C@@H](CC[C@H](N)C(N)=O)C[C@H]2O[C@@H](n3cnc4c(N)ncnc43)[C@H](O)[C@@H]2O)c1 [compound 24, 3-((3S,6S)-6,7-diamino-3-(((2R,3S,4R,5R)-5-(6-amino-9H-purin-9-yl)-3,4-dihydroxytetrahydrofuran-2-yl)methyl)-7-oxohept-1-yn-1-yl)benzamide]
cytotoxicity to U2OS cells (in words) (U2OS cells): None of the compounds tested (NS1, 21, 23, 24, 25) were toxic
ability to decrease MNAM levels in U2OS cells (in words) [2]: the effects were modest

NC(=O)NCC[C@H](C#Cc1cccc(C(N)=O)c1)C[C@H]1O[C@@H](n2cnc3c(N)ncnc32)[C@H](O)[C@@H]1O [compound 25, 3-((S)-3-(((2R,3S,4R,5R)-5-(6-amino-9H-purin-9-yl)-3,4-dihydroxytetrahydrofuran-2-yl)methyl)-5-ureidopent-1-yn-1-yl)benzamide]
isothermal dose response CETSA, stabilization of NNMT (in words) (NNMT [1]): dose-dependent manner
cytotoxicity to U2OS cells (in words) (U2OS cells): None of the compounds tested (NS1, 21, 23, 24, 25) were toxic
ability to decrease MNAM levels in U2OS cells (in words) [2]: the effects were modest

NC(=O)c1cccc(C#C[C@@H](CCC[C@H](N)C(=O)O)C[C@H]2O[C@@H](n3cnc4c(N)ncnc43)[C@H](O)[C@@H]2O)c1 [compound 26, (2S,6S)-2-amino-6-(((2R,3S,4R,5R)-5-(6-amino-9H-purin-9-yl)-3,4-dihydroxytetrahydrofuran-2-yl)methyl)-8-(3-carbamoylphenyl)oct-7-ynoic acid]
fold increase in inhibitory activity in terms of Ki compared to NS1 (NNMT [3]; relative to NS1): ~ 2 fold

NC(=O)c1ccc(C#C[C@@H](CC[C@H](N)C(=O)O)C[C@H]2O[C@@H](n3cnc4c(N)ncnc43)[C@H](O)[C@@H]2O)cc1 [compound 27, (2S,5S)-2-amino-5-(((2R,3S,4R,5R)-5-(6-amino-9H-purin-9-yl)-3,4-dihydroxytetrahydrofuran-2-yl)methyl)-7-(4-carbamoylphenyl)hept-6-ynoic acid]
NNMT inhibition (in words) (NNMT [3]): much less potent than NS1

NC(=O)c1ccccc1C#C[C@@H](CC[C@H](N)C(=O)O)C[C@H]1O[C@@H](n2cnc3c(N)ncnc32)[C@H](O)[C@@H]1O [compound 28, (2S,5S)-2-amino-5-(((2R,3S,4R,5R)-5-(6-amino-9H-purin-9-yl)-3,4-dihydroxytetrahydrofuran-2-yl)methyl)-7-(2-carbamoylphenyl)hept-6-ynoic acid]
NNMT inhibition (in words) (NNMT [3]): much less potent than NS1

Nc1ncnc2c1ncn2[C@@H]1O[C@H](C[C@@H](C#Cc2cccc(S(N)(=O)=O)c2)CC[C@H](N)C(=O)O)[C@@H](O)[C@H]1O [compound 29, (2S,5S)-2-amino-5-(((2R,3S,4R,5R)-5-(6-amino-9H-purin-9-yl)-3,4-dihydroxytetrahydrofuran-2-yl)methyl)-7-(3-sulfamoylphenyl)hept-6-ynoic acid]
NNMT inhibition (in words) (NNMT [3]): much less potent than NS1

Nc1ncnc2c1ncn2[C@@H]1O[C@H](C[C@@H](C#Cc2ccc3c(c2)C(=O)NCC3)CC[C@H](N)C(=O)O)[C@@H](O)[C@H]1O [compound 34, (2S,5S)-2-amino-5-(((2R,3S,4R,5R)-5-(6-amino-9H-purin-9-yl)-3,4-dihydroxytetrahydrofuran-2-yl)methyl)-7-(1-oxo-1,2,3,4-tetrahydroisoquinolin-7-yl)hept-6-ynoic acid]
NNMT inhibition (in words) (NNMT [3]): moderate NNMT inhibitors

Nc1ncnc2c1ncn2[C@@H]1O[C@H](C[C@@H](C#Cc2ccc3c(c2)C(=O)NC3)CC[C@H](N)C(=O)O)[C@@H](O)[C@H]1O [compound 35, (2S,5S)-2-amino-5-(((2R,3S,4R,5R)-5-(6-amino-9H-purin-9-yl)-3,4-dihydroxytetrahydrofuran-2-yl)methyl)-7-(3-oxoisoindolin-5-yl)hept-6-ynoic acid]
NNMT inhibition (in words) (NNMT [3]): moderate NNMT inhibitors
